Measurements: patent US5866775A, “Glyphosate-tolerant 5-enolpyruvyl-3-phosphoshikimate synthases” (Monsanto Company, priority 1990, dated 1999)

Key:
[1] = system: bacteria harboring pMON342 or pMON9566; experiment: Glyphosate tolerance of bacteria expressing petunia EPSPS from the double pL promoter; assay type: cell-based, E. coli; conditions: either plasmid
Protocol: The double pL promoter used to express the petunia EPSP synthase in pMON342 and pMON9566 leads to a very high level of expression of the enzyme. The enzyme is present at such high concentration that bacteria harboring either of these plasmids are tolerant to very high levels of glyphosate (>5 mM) in growth media, even though the enzyme produced by pMON342 is the wild type form. […] A plasmid for identifying such a promoter was constructed as follows: pMON9544, the precursor to pMON342, was digested with BamHI to remove the pL promoters, and was recircularized by ligation resulting in pMON362. The EcoRI fragment of pMON9556 containing the 3'portion of the petunia EPSPS cDNA was then inserted into the EcoRI site of this plasmid reconstituting the entire coding sequence. The resulting plasmid, pMON364 is identical to pMON342 except that there is no promoter 5' of the EPSP synthase coding sequence.

[2] = target: T1, EPSPS in crude extracts of tobacco plants transformed with pMON10079 (Petunia hybrida, UniProt P11043, A264T/G173A); experiment: EPSPS assay of crude plant extracts in the presence of glyphosate; assay type: biochemical; conditions: 1.0 mM glyphosate; eleven transformed plants
T1 construct: an alanine to threonine substitution at position 192 of the mature EPSPS enzyme has also been introduced into other plant species such as tobacco; expressed in transfected cells; host or cells: transgenic tobacco plants (pMON10079), crude plant extracts
Source text: Thus, the petunia EPSPS variant with the glycine to alanine substitution at position 101 and the alanine to threonine substitution at position 192 does confer glyphosate tolerance to transformed plants.

[3] = system: wildtype petunia plant or transformed with control vector (pMON505); experiment: Plant response to glyphosate spraying, control plants; assay type: in vivo; conditions: 0.8 #/acre acid equivalent (0.897 kg/hectare), isopropylamine salt, spray
Protocol: (§1) Four individual representative transgenic seedlings were selected, grown and tested in the testing procedure described below, along with four individual non-transformed (wild-type) petunia seedlings.
(§2) The plants were grown in a growth medium in a growth chamber at 26° C. with 12 hours of light per day. The plants were fertilized weekly with a soluble fertilizer and watered as needed. The plants were sprayed at a uniform and reproducible delivery rate of herbicide by use of an automated track sprayer. The glyphosate solution used was measured as pounds of glyphosate acid equivalents per acre, mixed as the glyphosate isopropylamine salt, with an ionic surfactant.
Four individual wild-type (non-transformed) petunia plants were selected for use as control plants. Four individual transformed plants containing the pMON546 vector were selected by kanamycin resistance as described by Horsch, et al. (1985).
The control plants and the transformed plants were sprayed with the isopropylamine salt of glyphosate at the application level listed in Table 2 below; the experimental results obtained are also summarized in Table 2.

[4] = system: petunia plants transformed with pMON546 (CaMV35S/wild-type petunia EPSP synthase); experiment: Plant response to glyphosate spraying, chimeric EPSPS plants; assay type: in vivo; conditions: 0.8 #/acre acid equivalent (0.897 kg/hectare), isopropylamine salt, spray
Source text: Transformed petunia plants were produced by regeneration from the above-described transformed leaf disks by the procedure described by Horsch, et al. (1985). The transformed plants obtained contained the pMON546 vector, described hereinabove, which contains the CaMV35S promoter fused to the wild-type petunia EPSP synthase gene.
as §1, §2
Four individual wild-type (non-transformed) petunia plants were selected for use as control plants. Four individual transformed plants containing the pMON546 vector were selected by kanamycin resistance as described by Horsch, et al. (1985). […]

[5] = system: transgenic canola plants containing pMON10074 (Arabidopsis EPSPS gly-ala(101), ala-thr(192)); experiment: Glyphosate spray of canola, pMON10074 plants; assay type: in vivo; conditions: 0.56 kg/ha spray; 15 transgenic plants
Source text: The resulting plasmid, pMON8324, was partially sequenced to confirm the mutagenesis. […] The pMON10074 plasmid contains the following DNA segments (FIG. 5, clockwise). First, the 0.93 kb fragment isolated from transposon Tn7 which encodes bacterial spectinomycin/streptomycin resistance (Spc/Str), and is a determinant for selection in E. coli and Agrobacterium tumefaciens (Fling et al. 1985). This is joined to the chimeric kanamycin resistance gene engineered for plant expression to allow selection of the transformed tissue. […]
A total of 15 transgenic canola plants containing the pMON10074 construct, and 2 non-transformed controls were sprayed with glyphosate at a commercial rate of 0.56 kg/ha. The effect of glyphosate on both the vegetative and reproductive performance of the sprayed plants was scored at 7, 14 and 28 days after spray. […]

[6] = system: tobacco, sugarbeet, tomato, soybean and cotton plants transformed with the variant EPSPS gene; experiment: Glyphosate tolerance of other transformed plant species; conditions: in vivo
Source text: A gene encoding the variant EPSPS enzyme of the present invention having a glycine to alanine substitution at position 101 and an alanine to threonine substitution at position 192 of the mature EPSPS enzyme has also been introduced into other plant species such as tobacco, sugarbeet, tomato, soybean and cotton. […] In particular, the glycine to alanine and alanine to threonine substitutions of the present invention have been introduced into a genomic clone of the Arabidopsis EPSPS gene and this gene introduced into canola and tobacco plants using suitable plant transformation vectors.

T1 sequence (P11043 73-516 G173A/A264T): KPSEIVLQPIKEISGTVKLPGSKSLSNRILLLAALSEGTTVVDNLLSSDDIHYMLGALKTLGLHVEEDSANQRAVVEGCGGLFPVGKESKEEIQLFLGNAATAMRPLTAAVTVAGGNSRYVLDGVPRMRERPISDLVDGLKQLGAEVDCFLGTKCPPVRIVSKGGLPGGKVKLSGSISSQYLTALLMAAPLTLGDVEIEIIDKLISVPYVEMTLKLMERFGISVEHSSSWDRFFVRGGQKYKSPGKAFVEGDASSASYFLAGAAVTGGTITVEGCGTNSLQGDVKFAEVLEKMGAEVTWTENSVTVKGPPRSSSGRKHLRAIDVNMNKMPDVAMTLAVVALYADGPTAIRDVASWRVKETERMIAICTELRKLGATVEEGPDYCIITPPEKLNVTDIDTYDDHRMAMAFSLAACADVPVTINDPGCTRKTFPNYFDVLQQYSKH

Structure (SMILES): O=C(O)CNCP(=O)(O)O [glyphosate, N-phosphonomethylglycine]
- glyphosate level tolerated in growth media [1]: > 5 mM
- glyphosate resistance of plant EPSPS [2]: all eleven exhibited glyphosate resistance
- Visual Appearance [3]: completely dead
- Visual Appearance [4]: growing well
- reproductive score (scale 0-10, 0 total kill, 10 normal unsprayed plant) [5]: 7 out of 15 had reproductive scores greater than 8 with 3 of them scoring 10
- vegetative score (scale 0-10, 0 total kill, 10 normal unsprayed plant) [5]: 6 out of 15 plants having vegetative scores greater than 8, with 1 scoring a 10
- glyphosate tolerance of transformed plants [6]: exhibited glyphosate tolerance
